The source of these data is patent US5852191A, “Rigidized monomethine cyanines” (Carnegie Mellon University, priority 1995, dated 1998).

Like-named read-outs stand apart in the source and are kept apart here.

The nature of data set [1]: Absorption/emission spectra and molar extinction coefficients of the compounds of Examples A and B in solvents (Table 3). Format: physicochemical. The text has this: (§1) The observed absorption maxima, molar extinction coefficients, emission maxima and qualitative solubility data for the boron-rigidized complexes of Examples A and B are provided in Table 3.
Data set [2] is described as follows: Relative fluorescence intensities of the compounds of Examples A and B in a variety of solvents (Table 4). Format: physicochemical. The text has this: See M. T. Ramos et al., Heterocycles, Vol. 29, p. 165 (1989).
Data set [3] is described as follows: Resistance to photodegradation (500 watt mercury vapor lamp; optical density monitored). Format: physicochemical. The text has this: The resistance to photodegradation of the compounds of Examples A and B in methanol and dichloromethane was also investigated and was compared with photofading rates of certain Coumarin dyes. A degassed solution of each dye in a quartz cuvette was illuminated with a 500 watt mercury vapor lamp from a distance of 4 inches. The solution optical density at maximum wavelength was monitored as a function of time.

Data set [4] in a line: Qualitative solubility of the compounds of Examples A and B (Table 3). Format: physicochemical. The note with it: applies to either dye compound.
From the text: as §1

A short description of data set [5]: Absorptive and emissive wavelength maxima and fluorescence of the compounds of Examples C to I. Format: physicochemical. To be noted: for Maximum absorptive wavelength / Maximum emissive wavelength: measured in methanol; for Fluorescence (in words): qualitative, methanol where stated.
The nature of data set [6]: Dimer formation of dye by UV spectrum on thin glass slide. Format: physicochemical.
For data set [7] the following is noted: cited from earlier work; for RI (relative intensity): 1.00 = intensity of the dye in methanol.
The conditions of data set [8]: cited from earlier work.
A short description of data set [9]: Literature spectral properties of prior art fluorescent dyes. Format: physicochemical.

As to `F[B-]1(F)N2C(=Cc3sc4ccccc4[n+]31)Sc1ccccc12` [Example A, Bis-benzothiazolylmethene Borondifluoride], the “Logarithm of the Extinction coefficient” value in [1] (Acetonitrile) was 4.97 M^-1 cm^-1; in data set [1] (Chloroform), 4.97 M^-1 cm^-1; in [1] (Ethyl Acetate), 4.98 M^-1 cm^-1; in data set [1] (Toluene), 4.95 M^-1 cm^-1. The Max. absorption wavelength in data set [1] (Acetonitrile) turned out to be 418 nm; in data set [1] (Chloroform) it was 420 nm; in data set [1] (Ethanol), 418 nm; in data set [1] (Ethyl Acetate) it was 418 nm; in data set [1] (Methanol) it was 418 nm; in data set [1] (Toluene) it was 420 nm. Moreover, the Max. emission wavelength in data set [1] (Acetonitrile) was 423 nm; in [1] (Chloroform), 425 nm; in data set [1] (Ethanol), 423 nm; in data set [1] (Ethyl Acetate), 423 nm; in data set [1] (Methanol) it was 422 nm; in data set [1] (Toluene), 427 nm. Besides, the “Shape of emission spectrum relative to absorption spectrum” value in [1] (FIG. 3 and FIG. 4) was “mirrors its absorption spectrum”. In addition, in data set [1] (solvents of Table 3), the Stokes shift is recorded as 5-7 nm. Also, the Relative fluorescence intensity came to 0.89 in data set [2] (Acetonitrile); 0.91 in data set [2] (Chloroform); 0.97 in [2] (Ethyl Acetate); 0.89 in data set [2] (Methanol); 0.81 in data set [2] (Toluene). For the same compound, the “Red shift at the maximum wavelength” value in data set [3] (dichloromethane) is given as “approximately 12 nm”. Further, the “Resistance to photofading compared with the Coumarin dyes” value in [3] (dichloromethane) was “more resistant to photofading than the Coumarin dyes”. Further, the “Photofading rate compared with the corresponding Coumarin compound” value in data set [3] (methanol, 500 watt mercury vapor lamp) is on record as “faded somewhat faster”. In addition, the “Solubility data (qualitative)” value in data set [4] (Acetonitrile) is reported as “sol”; in data set [4] (Chloroform), “sol”; in data set [4] (Ethanol) it was “sparingly”; in [4] (Ethyl Acetate), “sol”; in data set [4] (Methanol) it was “sparingly”; in [4] (Toluene), “sol”.
Consider `F[B-]1(F)N2C(=Cc3ccc4ccccc4[n+]31)Sc1ccccc12` [Example I, 2(2'-Benzothiazolylmethene)Quinoline Borondifluoride], for which, in [5], the Maximum absorptive wavelength is on record as 480 nm, the Maximum emissive wavelength is reported as 492 nm and the “Fluorescence (in words)” value is recorded as “green fluorescence”.
Take `O=C(O)Cc1ccc2c(c1)N1C(=Cc3oc4ccc(CC(=O)O)cc4[n+]3[B-]1(F)F)O2` [Example C, Bis-carboxymethyl Benzoxazolylmethene Borondifluoride]: in data set [5], the Maximum absorptive wavelength amounted to 362 nm, the Maximum emissive wavelength is reported as 386 nm and the “Fluorescence (in words)” value is “highly fluorescent”.
Take `O=C(O)CC1=C2Sc3cc(S(=O)(=O)O)ccc3N2[B-](F)(F)[n+]2c1sc1cc(S(=O)(=O)O)ccc12`: the “Dimer by UV spectrum” value in data set [6] (HMPA) is “absence of dimer”.
On to `O=C(Cc1ccc2c(c1)N1C(=Cc3oc4ccc(CC(=O)ON5C(=O)CCC5=O)cc4[n+]3[B-]1(F)F)O2)ON1C(=O)CCC1=O` [Blue 1-OSu, disuccinimidyl benzoxazolylmethene borondifluoride complex], for which the “Dimer by UV spectrum” value in data set [6] (DMF reaction mixture) is “presence of dimer”.
Take `CC1=CC(C)=[N+]2C1=Cc1c(C)c(S(=O)(=O)O)c(C)n1[B-]2(F)F` [Bodipy-sulfonate, 4-Sulfonato-3,3'5,5'-Tetramethyl-2,2'-Pyrromethene-1,1'-Borondifluoride Complex]: in data set [7] (Acetonitrile), the “RI (relative intensity)” value is 0.69, the Extinction coefficient was 58.9 cm⁻¹ mM⁻¹, the Max. absorption wavelength is reported as 504 nm and the Max. emission wavelength was 514 nm. Besides, in data set [7] (Dioxane), the “RI (relative intensity)” value is recorded as 0.64, the Extinction coefficient was 52.7 cm⁻¹ mM⁻¹, the Max. absorption wavelength was 506 nm and the Max. emission wavelength is on record as 518 nm. Further, in data set [7] (Methanol), the “RI (relative intensity)” value was 1.00, the Extinction coefficient is 57.7 cm⁻¹ mM⁻¹, the Max. absorption wavelength is given as 500 nm and the Max. emission wavelength is listed as 515 nm. Also, in data set [7] (Water), the “RI (relative intensity)” value is given as 0.67, the Extinction coefficient is 39.7 cm⁻¹ mM⁻¹, the Max. absorption wavelength is on record as 494 nm and the Max. emission wavelength is 509 nm.
`CC1=CC(C)=[N+]2C1=Cc1c(C)cc(C)n1[B-]2(F)F` [Bodipy, 3,3',5,5'-tetramethyl-2,2'-pyrromethene-1,1'-boron-difluoride]: in data set [7] (Acetonitrile), the “RI (relative intensity)” value is 0.87, the Extinction coefficient was 86.7 cm⁻¹ mM⁻¹, the Max. absorption wavelength is 501 nm and the Max. emission wavelength is reported as 508 nm. In addition, in data set [7] (Dioxane), the “RI (relative intensity)” value is given as 0.63, the Extinction coefficient was 80.0 cm⁻¹ mM⁻¹, the Max. absorption wavelength was 505 nm and the Max. emission wavelength is recorded as 512 nm. In addition, in [7] (Methanol), the “RI (relative intensity)” value was 1.00, the Extinction coefficient is 85.3 cm⁻¹ mM⁻¹, the Max. absorption wavelength is 501 nm and the Max. emission wavelength was 509 nm. In data set [7] (Water), the “RI (relative intensity)” value is 0.48, the Max. absorption wavelength is listed as 500 nm and the Max. emission wavelength is 508 nm. For the same compound, in data set [8] (aqueous media), the Maximum absorptive wavelength is given as 500 nm and the Maximum emissive wavelength is on record as 508 nm. Besides, the Emission maximum in [8] (solvent not stated) is listed as 508 nm.
As to `N#CC1=C2C=CC=CN2[B-](F)(F)[n+]2ccccc21` [Example G], in [5], the Maximum absorptive wavelength stood at 432 nm, the Maximum emissive wavelength is reported as 460 nm and the “Fluorescence (in words)” value is recorded as “very fluorescent”.
For `F[B-]1(F)N2C(=Cc3sc4ccccc4[n+]31)Oc1ccccc12` [Example D], in [5], the Maximum absorptive wavelength was 388 nm, the Maximum emissive wavelength is listed as 414 nm and the “Fluorescence (in words)” value is on record as “highly fluorescent”.
Taken in the same sequence, the figures for `F[B-]1(F)N2C=CC=CC2=Cc2sc3ccccc3[n+]21` [Example F, Benzothiazolyl Pyridylmonomethine Borondifluoride] were 430 nm, 476 nm and “high fluorescence”.
Turning to `CC(=O)C1=C2Sc3ccccc3N2[B-](F)(F)[n+]2c1sc1ccccc12` [Example E], in data set [5], the Maximum absorptive wavelength is on record as 416 nm and the “Fluorescence (in words)” value is “less fluorescent than the base benzothiazole chromophore”.
Regarding `F[B-]1(F)N2C(=Cc3ccc4ccccc4[n+]31)C=Cc1ccccc12` [Example H, Bis-Quinolinemethene Borondifluoride], in data set [5], the Maximum absorptive wavelength was 512 nm, the Maximum emissive wavelength was 518 nm and the “Fluorescence (in words)” value is on record as “intense green fluorescence”.
As to 7-amino-4-methylcoumarin acetate, the “Fluorescence capacity (extinction coefficient x quantum yield) relative to the present inventions' compounds” value in [9] was “approximately one-quarter”.
